Measurements published in US20100041892A1, “Therapeutic agent for diabetes” (priority 2005, published 2010).
Read-outs that look alike come from different tables or passages of the source.

Key:
[1] = target: T1, PPARγ-RXRα heterodimer (Homo sapiens, UniProt P37231); experiment: PPARγ-RXRα heterodimer ligand activity (luciferase reporter, PPARγ:RXRα:4ERPP/CHO-K1 cells); type: cell-based; conditions: concentration showing 50% of the maximum luciferase induction rate; CHO-K1 reporter cells, one day incubation
T1 construct: expressed in transfected cells; host or cells: CHO-K1 (PPARγ:RXRα:4ERPP/CHO-K1)
T1 sequence (P37231 1-477 isoform P37231-2): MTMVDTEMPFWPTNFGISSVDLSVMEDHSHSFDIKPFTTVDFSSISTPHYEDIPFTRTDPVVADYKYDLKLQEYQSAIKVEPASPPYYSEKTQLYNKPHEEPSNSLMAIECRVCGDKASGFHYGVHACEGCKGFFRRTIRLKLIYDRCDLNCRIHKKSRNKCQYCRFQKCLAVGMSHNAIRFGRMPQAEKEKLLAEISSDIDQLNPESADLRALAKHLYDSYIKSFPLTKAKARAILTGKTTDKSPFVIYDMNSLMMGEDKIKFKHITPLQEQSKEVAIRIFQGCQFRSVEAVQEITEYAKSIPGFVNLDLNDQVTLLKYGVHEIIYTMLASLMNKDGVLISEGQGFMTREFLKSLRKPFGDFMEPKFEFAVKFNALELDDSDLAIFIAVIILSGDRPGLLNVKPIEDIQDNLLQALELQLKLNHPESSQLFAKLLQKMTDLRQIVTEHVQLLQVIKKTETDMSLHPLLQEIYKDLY
T1 sequence (P19793 1-462 partner): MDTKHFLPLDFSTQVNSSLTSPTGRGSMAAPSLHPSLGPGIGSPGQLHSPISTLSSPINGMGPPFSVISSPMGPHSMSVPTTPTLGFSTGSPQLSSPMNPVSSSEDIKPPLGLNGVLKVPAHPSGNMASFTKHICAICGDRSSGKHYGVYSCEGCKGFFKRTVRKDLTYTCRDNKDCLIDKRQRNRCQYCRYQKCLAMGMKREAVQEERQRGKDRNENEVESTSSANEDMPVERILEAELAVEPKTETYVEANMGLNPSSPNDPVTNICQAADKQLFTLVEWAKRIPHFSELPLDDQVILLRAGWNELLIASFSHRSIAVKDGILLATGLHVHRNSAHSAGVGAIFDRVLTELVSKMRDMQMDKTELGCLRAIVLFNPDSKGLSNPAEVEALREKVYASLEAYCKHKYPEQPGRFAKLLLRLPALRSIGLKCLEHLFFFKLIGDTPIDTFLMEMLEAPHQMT
Method in brief: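 CHO-K1 cells expressing PPARγ:RXRα with a 4ERPP reporter were exposed to compound for one day at 37° C in Ham F12 containing 0.1% fatty acid-free BSA, then read for luciferase. Induction rate was taken relative to untreated cells as 1, and EC50 is the concentration giving 50% of maximal induction.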

[2] = test system: KKAy mice; experiment: Blood glucose and blood lipid (triglyceride) lowering action in mice; type: in vivo; conditions: Mus musculus, 4TO7, po, 4 to 7 days; for response vs control in vivo at 0.01 %: 0.01% in powder diet; for response vs control in vivo at 0.03 %: 0.03% in powder diet
Method in brief: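 KKAy mice (9 to 14-week-old, 5 per group) fed compound in powder diet at 0.01% (some at 0.03% or 0.005%) ad libitum for 4 to 7 days. Orbital plexus blood drawn; plasma glucose and triglyceride quantitated by enzyme method.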

[3] = plasma glucose relative to non-administration group = 100%, read-out: hypoglycemic action (%)
[4] = plasma triglyceride relative to non-administration group = 100%, read-out: hypolipidemic action (%)

Compound | EC50 [1] | response vs control in vivo at 0.01 % [2, 3] | response vs control in vivo at 0.01 % [2, 4] | melting point | response vs control in vivo at 0.03 % [2, 3] | response vs control in vivo at 0.03 % [2, 4]
CCOCC(COCC)Oc1ccc(CCCOC(=O)NS(=O)(=O)NCCOC(C)C)c(Oc2ncc(C(F)(F)F)cc2Cl)c1 [Example 430, 3-{2-{[3-chloro-5-(trifluoromethyl)pyridin-2-yl]oxy}-4-[2-ethoxy-1-(ethoxymethyl)ethoxy]phenyl}propyl {[(2-isopropoxyethyl)amino]sulfonyl}carbamate] | 0.95 nM | 45% | 34% | 68 to 69.2 °C |  | 
CCCCOC(=O)NS(=O)(=O)CCc1cc(OCCCC)nn1Cc1ccc(Cl)cc1Cl [Example 129, butyl ({2-[3-butoxy-1-(2,4-dichlorobenzyl)-1H-pyrazol-5-yl]ethyl}sulfonyl)carbamate] | 10 nM |  |  | 108 to 111 °C | 45% | 76%
CCCCCS(=O)(=O)NC(=O)CCc1cc(OCCCC)nn1Cc1ccc(Cl)cc1Cl [Example 97, 3-[3-butoxy-1-(2,4-dichlorobenzyl)-1H-pyrazol-5-yl]-N-(pentylsulfonyl)propanamide] | 7.5 nM | 58% | 64% | 104 to 105 °C |  | 
